Source: ChEMBL document CHEMBL5120857, “Rational design, synthesis and biological evaluation of dual PARP-1/2 and TNKS1/2 inhibitors for cancer therapy” (Eur J Med Chem, 2022)
The source made the active and inactive calls. No cut-off for these calls is given here.

Key:
[1] = system: MDA-MB-231; experiment: Antiproliferative activity against human MDA-MB-231 cells assessed as inhibition of cell growth incubated for 7 days by MTT assay; format: functional, cell-based; conditions: MDA-MB-231, 168 h
[2] = system: HCT-116; experiment: Antiproliferative activity against human HCT-116 cells assessed as inhibition of cell growth incubated for 7 days by MTT assay; format: functional, cell-based; conditions: HCT-116, 168 h
[3] = system: MDA-MB-468; experiment: Antiproliferative activity against human MDA-MB-468 cells assessed as inhibition of cell growth incubated for 7 days by MTT assay; format: functional, cell-based; conditions: MDA-MB-468, 168 h
[4] = Cytotoxicity against mouse AML12 cells assessed as reduction in cell viability incubated for 7 days by MTT assay; format: toxicity, cell-based; conditions: time 7 day
[5] = molecular target: T1, Poly [ADP-ribose] polymerase 1 (Homo sapiens, UniProt P09874); experiment: Inhibition of PARP-1 (unknown origin) using biotinylated NAD+ as substrate incubated for 45 mins in the presence of deoxy-oligonucleotide by microplate reader method relative to control
T1 sequence (P09874 whole entry): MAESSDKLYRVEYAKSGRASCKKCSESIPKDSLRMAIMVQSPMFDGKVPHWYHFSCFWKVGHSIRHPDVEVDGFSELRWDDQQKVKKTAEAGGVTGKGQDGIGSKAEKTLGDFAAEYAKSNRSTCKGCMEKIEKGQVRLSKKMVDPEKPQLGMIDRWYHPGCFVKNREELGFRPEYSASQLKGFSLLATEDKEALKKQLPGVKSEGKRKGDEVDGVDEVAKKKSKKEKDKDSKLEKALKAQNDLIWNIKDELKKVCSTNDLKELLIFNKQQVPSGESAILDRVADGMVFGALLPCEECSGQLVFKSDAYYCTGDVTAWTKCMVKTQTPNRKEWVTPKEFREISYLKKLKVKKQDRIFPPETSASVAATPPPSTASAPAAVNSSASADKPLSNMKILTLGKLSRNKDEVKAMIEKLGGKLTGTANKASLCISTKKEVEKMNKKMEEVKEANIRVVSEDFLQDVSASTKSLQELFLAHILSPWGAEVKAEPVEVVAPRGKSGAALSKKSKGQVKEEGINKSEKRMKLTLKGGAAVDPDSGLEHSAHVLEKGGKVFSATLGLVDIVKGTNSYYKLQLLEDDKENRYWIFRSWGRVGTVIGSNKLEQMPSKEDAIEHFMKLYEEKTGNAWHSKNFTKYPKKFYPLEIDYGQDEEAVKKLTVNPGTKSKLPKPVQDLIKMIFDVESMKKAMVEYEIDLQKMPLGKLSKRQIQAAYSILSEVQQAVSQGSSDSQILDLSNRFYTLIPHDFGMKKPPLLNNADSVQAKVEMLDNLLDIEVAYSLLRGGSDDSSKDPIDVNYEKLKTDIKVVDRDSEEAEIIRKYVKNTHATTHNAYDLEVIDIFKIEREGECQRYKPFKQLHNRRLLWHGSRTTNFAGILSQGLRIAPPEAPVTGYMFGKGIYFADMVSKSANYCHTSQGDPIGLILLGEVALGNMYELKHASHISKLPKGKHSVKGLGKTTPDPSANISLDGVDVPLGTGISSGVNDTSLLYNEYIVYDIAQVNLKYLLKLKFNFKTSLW

[6] = molecular target: T2, Poly [ADP-ribose] polymerase tankyrase-1 (Homo sapiens, UniProt O95271); experiment: Inhibition of TNKS1 (unknown origin) using biotin-NAD+ as substrate incubated for 1 hr in the presence of deoxy-oligonucleotide by ELISA analysis relative to control
T2 sequence (O95271 whole entry): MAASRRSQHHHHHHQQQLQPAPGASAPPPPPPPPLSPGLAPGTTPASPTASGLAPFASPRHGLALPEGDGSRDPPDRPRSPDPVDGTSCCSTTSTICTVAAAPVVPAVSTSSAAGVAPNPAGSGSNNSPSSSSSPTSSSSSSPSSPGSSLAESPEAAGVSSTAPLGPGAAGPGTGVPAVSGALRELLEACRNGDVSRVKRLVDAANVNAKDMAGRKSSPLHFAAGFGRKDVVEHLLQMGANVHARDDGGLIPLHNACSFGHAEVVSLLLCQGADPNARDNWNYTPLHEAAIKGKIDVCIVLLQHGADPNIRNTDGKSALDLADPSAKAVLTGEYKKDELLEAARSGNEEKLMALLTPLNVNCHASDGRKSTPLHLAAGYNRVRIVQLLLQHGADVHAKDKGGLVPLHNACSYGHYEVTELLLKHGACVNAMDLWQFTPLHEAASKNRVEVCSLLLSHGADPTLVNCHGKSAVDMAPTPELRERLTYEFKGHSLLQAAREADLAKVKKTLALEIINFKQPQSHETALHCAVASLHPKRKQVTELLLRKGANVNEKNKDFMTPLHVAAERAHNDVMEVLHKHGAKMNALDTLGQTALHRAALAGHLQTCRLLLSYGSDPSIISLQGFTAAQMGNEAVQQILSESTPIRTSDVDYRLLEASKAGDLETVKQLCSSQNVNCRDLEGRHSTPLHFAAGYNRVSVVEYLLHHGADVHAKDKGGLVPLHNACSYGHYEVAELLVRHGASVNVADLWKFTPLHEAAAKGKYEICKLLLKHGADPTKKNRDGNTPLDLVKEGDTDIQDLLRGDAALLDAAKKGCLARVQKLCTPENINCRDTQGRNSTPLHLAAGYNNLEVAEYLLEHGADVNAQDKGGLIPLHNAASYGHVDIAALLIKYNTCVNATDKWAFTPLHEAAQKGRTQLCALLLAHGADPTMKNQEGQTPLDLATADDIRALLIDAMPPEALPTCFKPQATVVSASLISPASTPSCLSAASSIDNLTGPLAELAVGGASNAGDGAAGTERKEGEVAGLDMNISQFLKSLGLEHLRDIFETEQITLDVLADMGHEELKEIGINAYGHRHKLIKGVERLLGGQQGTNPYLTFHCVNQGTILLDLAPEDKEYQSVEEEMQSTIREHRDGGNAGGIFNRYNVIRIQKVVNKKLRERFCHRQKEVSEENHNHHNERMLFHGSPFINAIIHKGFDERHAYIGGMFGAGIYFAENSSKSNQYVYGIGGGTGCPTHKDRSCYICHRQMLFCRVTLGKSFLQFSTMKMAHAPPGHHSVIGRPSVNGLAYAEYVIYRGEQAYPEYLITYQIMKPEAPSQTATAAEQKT

[7] = molecular target: T3, Poly [ADP-ribose] polymerase tankyrase-2 (Homo sapiens, UniProt Q9H2K2); experiment: Inhibition of TNKS2 (unknown origin) using biotin-NAD+ as substrate incubated for 1 hr in the presence of deoxy-oligonucleotide by ELISA analysis relative to control
T3 sequence (Q9H2K2 whole entry): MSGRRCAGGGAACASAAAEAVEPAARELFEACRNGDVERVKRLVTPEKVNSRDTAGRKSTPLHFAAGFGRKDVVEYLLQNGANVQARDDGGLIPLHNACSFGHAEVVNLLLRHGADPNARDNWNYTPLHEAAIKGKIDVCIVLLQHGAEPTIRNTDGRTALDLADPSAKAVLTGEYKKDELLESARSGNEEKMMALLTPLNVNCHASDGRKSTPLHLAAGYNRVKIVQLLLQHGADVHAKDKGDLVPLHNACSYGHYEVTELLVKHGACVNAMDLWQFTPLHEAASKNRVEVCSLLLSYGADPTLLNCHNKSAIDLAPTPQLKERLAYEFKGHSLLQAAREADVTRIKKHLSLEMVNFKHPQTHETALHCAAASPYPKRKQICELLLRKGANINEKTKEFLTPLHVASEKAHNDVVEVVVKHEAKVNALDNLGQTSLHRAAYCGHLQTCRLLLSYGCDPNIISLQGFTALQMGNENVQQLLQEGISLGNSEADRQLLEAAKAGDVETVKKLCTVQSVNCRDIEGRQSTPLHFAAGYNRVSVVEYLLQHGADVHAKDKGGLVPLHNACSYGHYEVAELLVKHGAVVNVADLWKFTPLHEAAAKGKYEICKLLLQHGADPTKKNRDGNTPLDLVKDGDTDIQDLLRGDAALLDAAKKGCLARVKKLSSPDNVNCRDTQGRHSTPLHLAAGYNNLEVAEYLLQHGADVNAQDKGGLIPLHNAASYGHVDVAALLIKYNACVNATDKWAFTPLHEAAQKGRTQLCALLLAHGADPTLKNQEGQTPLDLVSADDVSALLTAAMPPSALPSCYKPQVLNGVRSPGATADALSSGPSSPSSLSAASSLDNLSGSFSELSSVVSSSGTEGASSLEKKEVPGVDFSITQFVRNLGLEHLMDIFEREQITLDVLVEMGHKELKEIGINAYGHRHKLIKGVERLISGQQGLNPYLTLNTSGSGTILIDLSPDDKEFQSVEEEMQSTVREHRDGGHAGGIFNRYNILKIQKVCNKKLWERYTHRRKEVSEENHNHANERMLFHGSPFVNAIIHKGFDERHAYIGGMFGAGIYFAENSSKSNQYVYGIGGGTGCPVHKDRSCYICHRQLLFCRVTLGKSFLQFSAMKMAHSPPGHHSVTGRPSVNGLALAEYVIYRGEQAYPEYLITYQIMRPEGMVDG

[8] = molecular target: T1, Poly [ADP-ribose] polymerase 1; conditions: dose 10.0 nM, time 45.0 min
[9] = molecular target: T4, Poly [ADP-ribose] polymerase tankyrase-1 (Homo sapiens) (UniProt O95271); conditions: dose 10.0 nM, time 1.0 hrs
T4 sequence (whole entry): T2 sequence (O95271 whole entry)

[10] = molecular target: T5, Poly [ADP-ribose] polymerase tankyrase-2 (Homo sapiens) (UniProt Q9H2K2); conditions: dose 10.0 nM, time 1.0 hrs
T5 sequence (whole entry): T3 sequence (Q9H2K2 whole entry)

[11] = system: HCT-116; experiment: Inhibition of PARP in human HCT-116 cells assessed as decrease in pADPr levels at 10 uM by Western blot analysis; format: cell-based
[12] = system: HCT-116; experiment: Induction of apoptosis in human HCT-116 cells assessed as viable cells at 5 uM incubated for 3 days by annexinV-FITC/propidium iodide staining based flow cytometry (reference value: 60.0 %); format: functional; conditions: time 3 day
[13] = system: HCT-116; experiment: Induction of apoptosis in human HCT-116 cells assessed as early apoptotic cells at 5 uM incubated for 3 days by annexinV-FITC/propidium iodide staining based flow cytometry (reference value: 7.67 %); format: functional; conditions: time 3 day
[14] = system: HCT-116; experiment: Induction of apoptosis in human HCT-116 cells assessed as late apoptotic cells at 5 uM incubated for 3 days by annexinV-FITC/propidium iodide staining based flow cytometry (reference value: 8.71 %); format: functional; conditions: time 3 day
[15] = system: HCT-116; experiment: Induction of apoptosis in human HCT-116 cells assessed as necrotic cells at 5 uM incubated for 3 days by annexinV-FITC/propidium iodide staining based flow cytometry (reference value: 3.65 %); format: functional; conditions: time 3 day
[16] = system: HCT-116; experiment: Induction of cell cycle arrest in human HCT-116 cells assessed as G0/G1 phase cells at 5 uM incubated for 3 days by propidium iodide staining based flow cytometry (reference value: 68.35 %); format: functional; conditions: time 3 day
[17] = system: HCT-116; experiment: Induction of cell cycle arrest in human HCT-116 cells assessed as S phase cells at 5 uM incubated for 3 days by propidium iodide staining based flow cytometry (reference value: 11.26 %); format: functional; conditions: time 3 day
[18] = system: HCT-116; experiment: Induction of cell cycle arrest in human HCT-116 cells assessed as G2/M phase cells at 5 uM incubated for 3 days by propidium iodide staining based flow cytometry (reference value: 68.35 %); format: functional; conditions: time 3 day
[19] = system: HCT-116; experiment: Antitumor activity against human HCT-116 cells xenografted in BALB/c nude mouse assessed as tumor growth inhibition at 50 mg/kg, ip administered once daily for 28 days; format: functional; conditions: time 28 day
[20] = system: HCT-116; experiment: Inhibition of Wnt/beta-Catenin signaling in human HCT-116 cells assessed as increase in axin2 levels at 10 uM by Western blot analysis; format: cell-based
[21] = system: HCT-116; experiment: Inhibition of Wnt/beta-Catenin signaling in human HCT-116 cells assessed as decrease in cyclin D1 levels at 10 uM by Western blot analysis; format: cell-based

Row | SMILES | IC50 [1] [nM] | IC50 [2] [nM] | IC50 [3] [nM] | IC50 [5] [nM] | IC50 [6] [nM] | IC50 [7] [nM] | inhibition [8] [%] | inhibition [9] [%] | inhibition [10] [%] | CC50 at 168 h [4] [nM] | further results
1 | O=C(c1cc(Cc2n[nH]c(=O)c3ccccc23)ccc1F)N1CCN(C(=O)C2CC2)CC1 [OLAPARIB] | 5350 | 5560 | 2520 |  |  |  |  |  |  | 31100 | inhibition [11]: Active; Activity [12]: 68.8%; Activity [13]: 12.9%; Activity [14]: 14.3%; Activity [15]: 4.03%; Activity [16]: 58.46%; Activity [17]: 7.31%; Activity [18]: 34.23%; TGI [19]: 15.36%
2 | COc1ccc(NC(=O)c2ccc(NC(=O)C3CCN(C(=O)c4cc(Cc5n[nH]c(=O)c6ccccc56)ccc4F)CC3)cc2)cc1 |  |  |  |  |  |  | 97 |  | 11.5 |  | 
3 | O=C(Nc1ccc(F)cc1)c1ccc(NC(=O)N2CCN(C(=O)c3cc(Cc4n[nH]c(=O)c5ccccc45)ccc3F)CC2)cc1 | 960 | 510 | 110 | 1.54 | 214 | 171 | 89 | 14 | 38 | 37400 | 
4 | O=c1[nH]nc2c3c(cccc13)N=C(CN1Cc3ccccc3C1)N2 [2X-121] | 2890 | 6710 | 4170 |  |  |  |  |  |  | 1390 | inhibition [20]: Active; inhibition [21]: Active; inhibition [11]: Active; viability at 5 µM ([12]; Homo sapiens, HCT-116, 72 h, read-out: Activity): 74.8%; Activity [13]: 6.11%; Activity [14]: 12.6%; Activity [15]: 6.45%; Activity [16]: 64.78%; Activity [17]: 11.73%; Activity [18]: 23.49%; inhibition in vivo at 50 mg/kg ([19]; Mus musculus, HCT-116, 672 h, read-out: TGI): 20.2%
5 | O=C(Nc1ccccc1F)c1ccc(NC(=O)N2CCN(C(=O)c3cc(Cc4n[nH]c(=O)c5ccccc45)ccc3F)CC2)cc1 |  |  |  | 0.98 | 506 | 296 | 99 | 10.5 | 36 |  | 

Continued by falling IC50 [1], values first:

Row | IC50 [1] [nM] | IC50 [2] [nM] | IC50 [3] [nM] | IC50 [5] [nM] | IC50 [6] [nM] | IC50 [7] [nM] | inhibition [8] [%] | inhibition [9] [%] | inhibition [10] [%] | SMILES | CC50 at 168 h [4] [nM] | further results
6 | 1290 | 1040 | 70 | 1.62 | 130 | 110 | 99 | 20 | 40 | Cc1ccccc1NC(=O)c1ccc(NC(=O)N2CCN(C(=O)c3cc(Cc4n[nH]c(=O)c5ccccc45)ccc3F)CC2)cc1 | 86700 | 
7 | 680 | 700 | 40 | 0.49 | 39 | 14 | 99 | 13 | 48 | Cc1ccc(NC(=O)c2ccc(NC(=O)N3CCN(C(=O)c4cc(Cc5n[nH]c(=O)c6ccccc56)ccc4F)CC3)cc2)cc1 | 49200 | 
